Measurements published in patent US20140120087A1, “TRIAZOLOPYRIDINES” (BAYER INTELLECTUAL PROPERTY GMBH, priority 2011, published 2014).

What was measured:
[1] = Hydrolytic stability assay at pH 2; assay type: physicochemical; conditions: buffer pH 2, 37° C., compounds of the invention
Protocol: The hydrolytic stability assay investigates the stability of a compound in an aqueous buffer system. Standard solution stability assay is run in 0.05 M Phosphate buffer at pH 7.4 (pH of blood plasma) at 37° C. As compounds in the GI tract are exposed to a wide variety of pHs any relevant pH (as pH 2 to simulate the acidic condition of the GI tract in the following experiment) can be chosen. Compounds are incubated in relevant solution at 37° C. and analyzed by HPLC immediately after incubation and after 1, 2 and 24 hrs. Degradation rate (decay in %) is calculated by relating peak areas after 1, 2 and 24 hrs to the time zero injection.
Compound is available as 10 mM in DMSO (solution 1). 2.5 μL of solution 1 is dissolved in 1 mL acetonitrile leading to solution 2. Poorly soluble compounds may demand another dilution step of solution 2 (1:5 and 1:10 respectively) in Acetonitrile). Solution 2 is incubated at 37° C. in a tempered HPLC autosampler. 1 mL buffer pH 2 is transferred into an HPLC vial. 100 μL of solution 2 is added to the buffer pH 2 solution and mixed thoroughly. Immediately after mixing the combined solution is injected into the HPLC to give the time zero injection. Injections are repeated after 1, 2 and 24 hrs.
The degradation rate (decay in %) is calculated using HPLC software Millennium and Excel respectively.

Mps-1 kinase [2] = molecular target: T1, Mps-1 kinase (Homo sapiens, UniProt P33981); assay: Mps-1 kinase assay with 2 mM ATP (TR-FRET)
T1 sequence (P33981 1-857): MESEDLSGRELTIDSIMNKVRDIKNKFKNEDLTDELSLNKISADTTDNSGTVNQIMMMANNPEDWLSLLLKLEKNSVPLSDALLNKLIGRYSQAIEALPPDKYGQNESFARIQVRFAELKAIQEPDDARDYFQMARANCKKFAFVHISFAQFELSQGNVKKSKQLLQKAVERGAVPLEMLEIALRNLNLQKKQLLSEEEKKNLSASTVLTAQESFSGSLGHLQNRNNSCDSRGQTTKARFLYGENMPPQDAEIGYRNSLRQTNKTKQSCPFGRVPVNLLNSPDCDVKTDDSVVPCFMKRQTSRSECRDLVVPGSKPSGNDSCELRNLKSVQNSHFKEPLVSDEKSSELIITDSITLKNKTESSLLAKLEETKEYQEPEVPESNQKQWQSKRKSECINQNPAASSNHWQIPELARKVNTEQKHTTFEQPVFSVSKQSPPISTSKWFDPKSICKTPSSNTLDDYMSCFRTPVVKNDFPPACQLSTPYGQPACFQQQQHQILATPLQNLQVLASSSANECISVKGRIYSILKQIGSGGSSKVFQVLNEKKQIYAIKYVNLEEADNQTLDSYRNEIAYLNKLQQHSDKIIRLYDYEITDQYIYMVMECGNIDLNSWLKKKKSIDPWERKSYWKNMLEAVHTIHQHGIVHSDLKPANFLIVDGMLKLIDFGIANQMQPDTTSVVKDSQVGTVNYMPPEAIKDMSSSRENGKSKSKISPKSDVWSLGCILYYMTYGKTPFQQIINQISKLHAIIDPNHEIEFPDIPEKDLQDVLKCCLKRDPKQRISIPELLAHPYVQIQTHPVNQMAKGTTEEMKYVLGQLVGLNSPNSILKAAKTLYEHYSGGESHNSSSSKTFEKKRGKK

Mps-1 kinase [3] = molecular target: T1, Mps-1 kinase; assay: Mps-1 kinase assay with 10 μM ATP (TR-FRET)

Hydrolysis at pH 2; Decay in % after 24 h [1] [%] | IC50 (Mps-1 kinase [2]) [nM] | IC50 (Mps-1 kinase [3]) [nM] | SMILES
<10 | ≤ 1 | ≤ 1 | CCOCCNC(=O)c1ccc(Nc2nc3ccc(-c4ccc(NC(=O)Cc5ccc(F)cc5)cc4)cn3n2)c(OC)c1 [Example 01.7, N-(2-ethoxyethyl)-4-{[6-(4-{[(4-fluorophenyl)acetyl]amino}phenyl)[1,2,4]-triazolo[1,5-α]pyridin-2-yl]amino}-3-methoxybenzamide]
<10 | ≤ 1 | ≤ 1 | CCNC(=O)c1ccc(Nc2nc3ccc(-c4ccc(NC(=O)Cc5ccc(F)cc5)cc4)cn3n2)c(OCC)c1 [Example 01.16, 3-ethoxy-N-ethyl-4-{[6-(4-{[(4-fluorophenyl)acetyl]amino}phenyl)[1,2,4]-triazolo[1,5-α]pyridin-2-yl]amino}benzamide]
<10 | 1.1 | ≤ 1 | CCCOc1cc(C(=O)N(CC)CC)ccc1Nc1nc2ccc(-c3ccc(NC(=O)Cc4ccc(F)cc4)cc3)cn2n1 [Example 01.23, N,N-diethyl-4-{[6-(4-{[(4-fluorophenyl)acetyl]amino}phenyl)[1,2,4]triazolo-[1,5-α]pyridin-2-yl]amino}-3-propoxybenzamide]
<10 | ≤ 1 | ≤ 1 | CCOc1cc(C(=O)NCC(C)(C)O)ccc1Nc1nc2ccc(-c3ccc(NC(=O)Cc4ccc(F)cc4)cc3)cn2n1 [Example 01.17, 3-ethoxy-4-{[6-(4-{[(4-fluorophenyl)acetyl]amino}phenyl)[1,2,4]triazolo-[1,5-α]pyridin-2-yl]amino}-N-(2-hydroxy-2-methylpropyl)benzamide]
<10 | ≤ 1 | ≤ 1 | CCOc1cc(C(=O)NC(C)(C)CO)ccc1Nc1nc2ccc(-c3ccc(C(=O)NCc4ccc(F)cc4)cc3)cn2n1 [Example 02.3, 3-ethoxy-4-[(6-{4-[(4-fluorobenzyl)carbamoyl]phenyl}[1,2,4]triazolo[1,5-α]pyridin-2-yl)amino]-N-(1-hydroxy-2-methylpropan-2-yl)benzamide]
<10 | 1.2 | ≤ 1 | CCN(CC)C(=O)c1ccc(Nc2nc3ccc(-c4ccc(NC(=O)Cc5ccc(F)cc5)cc4)cn3n2)c(OC)c1 [Example 01.1, N,N-diethyl-4-{[6-(4-{[(4-fluorophenyl)acetyl]amino}phenyl)[1,2,4]-triazolo[1,5-α]pyridin-2-yl]amino}-3-methoxybenzamide]
<10 | 4.6 | ≤ 1 | COc1cc(C(=O)NCC(F)(F)F)ccc1Nc1nc2ccc(-c3ccc(C(=O)NCc4ccc(F)cc4)cc3)cn2n1 [Example 02.17, 4-[(6-{4-[(4-fluorobenzyl)carbamoyl]phenyl}[1,2,4]triazolo[1,5-α]pyridin-2-yl)amino]-3-methoxy-N-(2,2,2-trifluoroethyl)benzamide]
<10 | 11 | ≤ 1 | O=C(NCCO)c1ccc(Nc2nc3ccc(-c4ccc(C(=O)NCC5CC5)cc4)cn3n2)c(OCC(F)(F)F)c1 [Example 06.4, 4-[(6-{4-[(cyclopropylmethyl)carbamoyl]phenyl}[1,2,4]triazolo[1,5-α]-pyridin-2-yl)amino]-N-(2-hydroxyethyl)-3-(2,2,2-trifluoroethoxy)benzamide]
<10 | ≤ 1 | ≤ 1 | CNCCN(C)C(=O)c1ccc(Nc2nc3ccc(-c4ccc(C(=O)NCc5ccc(F)cc5)cc4)cn3n2)c(OC)c1 [Example 02.11, 4-[(6-{4-[(4-fluorobenzyl)carbamoyl]phenyl}[1,2,4]triazolo[1,5-α]pyridin-2-yl)amino]-3-methoxy-N-methyl-N-[2-(methylamino)ethyl]benzamide]
<10 | ≤ 1 | ≤ 1 | CC(C)(C)NC(=O)c1ccc(Nc2nc3ccc(-c4ccc(NC(=O)Cc5ccc(F)cc5)cc4)cn3n2)c(OCC(F)(F)F)c1 [Example 01.21, N-tert-butyl-4-{[6-(4-{[(4-fluorophenyl)acetyl]amino}phenyl)[1,2,4]-triazolo[1,5-α]pyridin-2-yl]amino}-3-(2,2,2-trifluoroethoxy)benzamide]
<10 | ≤ 1 | ≤ 1 | CC(C)(O)CNC(=O)c1ccc(Nc2nc3ccc(-c4ccc(C(=O)NCc5ccc(F)cc5)cc4)cn3n2)c(OCC(F)(F)F)c1 [Example 02.22, 4-[(6-{4-[(4-fluorobenzyl)carbamoyl]phenyl}[1,2,4]triazolo[1,5-α]pyridin-2-yl)amino]-N-(2-hydroxy-2-methylpropyl)-3-(2,2,2-trifluoroethoxy)benzamide]
<10 | ≤ 1 | ≤ 1 | CCOc1cc(C(=O)NCCS(C)(=O)=O)ccc1Nc1nc2ccc(-c3ccc(NC(=O)Cc4ccc(F)cc4)cc3)cn2n1 [Example 01.28, 3-ethoxy-4-{[6-(4-{[(4-fluorophenyl)acetyl]amino}phenyl)[1,2,4]triazolo-[1,5-α]pyridin-2-yl]amino}-N-[2-(methylsulfonyl)ethyl]benzamide]
<10 | 1.5 | ≤ 1 | COc1cc(C(=O)NC(C)(C)CO)ccc1Nc1nc2ccc(-c3ccc(C(=O)NCc4ccc(F)cc4)cc3)cn2n1 [Example 02.8, 4-[(6-{4-[(4-fluorobenzyl)carbamoyl]phenyl}[1,2,4]triazolo[1,5-α]pyridin-2-yl)amino]-N-(1-hydroxy-2-methylpropan-2-yl)-3-methoxybenzamide]
<10 | ≤ 1 | ≤ 1 | O=C(NCCO)c1ccc(Nc2nc3ccc(-c4ccc(C(=O)NCc5ccc(F)cc5)cc4)cn3n2)c(OCC(F)(F)F)c1 [Example 02.4, 4-[(6-{4-[(4-fluorobenzyl)carbamoyl]phenyl}[1,2,4]triazolo[1,5-α]pyridin-2-yl)amino]-N-(2-hydroxyethyl)-3-(2,2,2-trifluoroethoxy)benzamide]
<10 | 21 | ≤ 1 | CCOc1cc(C(=O)NCCO)ccc1Nc1nc2ccc(-c3ccc(C(=O)NCC4CC4)cc3)cn2n1 [Example 06.3, 4-[(6-{4-[(cyclopropylmethyl)carbamoyl]phenyl}[1,2,4]triazolo[1,5-α]-pyridin-2-yl)amino]-3-ethoxy-N-(2-hydroxyethyl)benzamide]
<10 | ≤ 1 | ≤ 1 | CCOc1cc(C(=O)NCCO)ccc1Nc1nc2ccc(-c3ccc(NC(=O)Cc4ccc(F)cc4)cc3)cn2n1 [Example 01.8, 3-ethoxy-4-{[6-(4-{[(4-fluorophenyl)acetyl]amino}phenyl)[1,2,4]triazolo-[1,5-α]pyridin-2-yl]amino}-N-(2-hydroxyethyl)benzamide]
<10 | ≤ 1 | ≤ 1 | COc1cc(C(=O)N(C)CCN(C)C(C)=O)ccc1Nc1nc2ccc(-c3ccc(NC(=O)Cc4ccc(F)cc4)cc3)cn2n1 [Example 01.14, N-{2-[acetyl(methyl)amino]ethyl}-4-{[6-(4-{[(4-fluorophenyl)acetyl]amino}-phenyl)[1,2,4]triazolo[1,5-α]pyridin-2-yl]amino}-3-methoxy-N-methylbenzamide]
<10 | ≤ 1 | ≤ 1 | CCOc1cc(C(=O)NCCO)ccc1Nc1nc2ccc(-c3ccc(C(=O)NCc4ccc(F)cc4)cc3)cn2n1 [Example 02.2, 3-ethoxy-4-[(6-{4-[(4-fluorobenzyl)carbamoyl]phenyl}[1,2,4]triazolo[1,5-α]pyridin-2-yl)amino]-N-(2-hydroxyethyl)benzamide]
